Data as given in publication PMC9043997, “LEAP2 reduces postprandial glucose excursions and ad libitum food intake in healthy men” (Cell Reports Medicine, 2022).
Where a SMILES comes first, the peptide text is derived from it. Bridges are numbered along the chain shown (N, C = ends).

What was measured:
healthy men [1] = experiment: Ad libitum meal test at the end of the infusion period; assay type: in vivo, human; conditions: healthy men n = 20, iv LEAP2 ~25 pmol/kg/min
Protocol: (§1) The infusion was terminated when participants had finished eating.
Unless otherwise stated, results are presented as mean ± SEM. Baseline values were calculated as a mean of timepoints −35, −10 and 0 min or, when only available −10 and 0 min. Baseline values for the postprandial period were calculated as a mean of timepoint 60 min. Calculations of AUC were based on the trapezoidal rule. AUC values are reported for the period 0 to 255 min. To assess the fasting and postprandial periods separately, AUC values are reported for the periods 0 to 60 min and 60 to 255 min, respectively. Student’s paired t test was used to test for differences in baseline, peak, time to peak, AUC and mean values and ad libitum food intake in men. Indirect calorimetry and thermal imaging data were fitted to a repeated-measures mixed effects model with the intervention and timepoints as independent variables with interaction and Geisser-Greenhouse correction. Šidák’s post hoc test was used to compare LEAP2 to placebo for each timepoint. For analysis of endogenous LEAP2 concentrations in response to a liquid mixed meal test, postprandial data during placebo infusion were fitted to a repeated-measures mixed effects model with time as a fixed effect and the individual participant as a random effect with Geisser-Greenhouse correction. Dunnett’s post hoc test was used to compare endogenous LEAP2 concentrations at each timepoint (75 to 255 min) to the postprandial baseline. Mouse plasma glucose, food intake and insulin data were analyzed by a repeated-measures two-way ANOVA with Šidák’s post hoc test. Statistical analyses were carried out using GraphPad Prism v9.0.0 and v9.1.1 (GraphPad Software, San Diego, California). A two-sided p value < 0.05 was considered statistically significant. The population size calculation was based on data from a previous study investigating the reproducibility of an ad libitum meal in healthy men.[41] Eighteen participants were needed to detect a difference of minimum 500 kJ in ad libitum food intake with a with-in subject difference of 739 kJ, a power of 80% and the above-mentioned significance level. To ensure sufficient power, 20 participants were included.

healthy men [2] = experiment: Plasma growth hormone during LEAP2 infusion, crossover study; assay type: in vivo, human; conditions: mean ± SEM
Excerpt: as §1
For analysis of plasma glucose, blood was distributed in fluoride heparin-coated tubes, centrifuged immediately for 30 s (12,100 g, room temperature) and measured bedside by the glucose oxidase method (YSI 2900 Biochemistry Analyzer; YSI Incorporated, Yellow Springs, Ohio, USA). For analysis of LEAP2, blood was collected in chilled K3EDTA tubes each containing 250 KIU of aprotinin. For analysis of acyl ghrelin, blood was collected in chilled K2EDTA tubes added 20 μL pefabloc (100 mg/mL; Merck Millipore, Burlington, Massachusetts, USA). Subsequently, pefabloc-treated plasma was acidified with HCl (12.5 μL 2M HCl per 500 μL plasma; Merck Millipore, Burlington, Massachusetts, USA). For analysis of glucagon, blood was collected in K2EDTA tubes. For analysis of GH, insulin, C-peptide, free fatty acids, glycerol, triglycerides and acetaminophen (paracetamol), blood was collected in tubes with lithium and heparin. All tubes were immediately cooled on ice, centrifuged for 15 min (2,000 g, 4°C) and stored at −80°C until analysis. LEAP2 concentrations were determined by an in-house radioimmunoassay directed against the N-terminal part of LEAP2. LEAP-2 was used for standards, and the tracer was a peptide composed of the 12 N-terminal amino acids of LEAP2, with a ^125I-labelled tyrosine added to the C-terminal end. The precision and accuracy of the assay were evaluated based on European Medicines Agency's guidelines for bioanalytical assay validation. […] Due to supply chain disruptions from the COVID-19 pandemic, acyl ghrelin was only measured in plasma samples at timepoints 0, 60, 105, 165 and 255 min. […] Plasma GH was measured by Immunodiagnostic system-iSYS assay (IS-3700; IDS Limited, Boldon, UK). The assay is based on chemiluminesence technology and was performed according to the manufacturer’|'s instructions. […] For analysis of glucagon, plasma was extracted in a final concentration of 70% ethanol. Glucagon was measured using a C-terminal directed antiserum (code number 4305) measuring glucagon of pancreatic origin as previously described.[40] […] Plasma insulin and C-peptide were measured using a two-sided electrochemiluminescence immunoassay (Atellica IM Analyzer; Siemens Healthcare, Ballerup, Denmark). Plasma triglycerides and acetaminophen were analyzed by spectrophotometric methods following enzymatic hydrolysis and oxidation (Siemens Atellica CH 930; Siemens Healthcare, Ballerup, Denmark). Plasma concentrations of free fatty acids and glycerol were determined by enzymatic methods modified to run on a COBAS 6000 automatic analyzer (Roche, Rødovre, Denmark) using a NEFA-HR assay (Wako Chemicals, Neuss, Germany) and glycerol assay (Randox Laboratories, Crumlin, UK), respectively.
Unless otherwise stated, results are presented as mean ± SEM. Baseline values were calculated as a mean of timepoints −35, −10 and 0 min or, when only available −10 and 0 min. Baseline values for the postprandial period were calculated as a mean of timepoint 60 min. Calculations of AUC were based on the trapezoidal rule. AUC values are reported for the period 0 to 255 min. To assess the fasting and postprandial periods separately, AUC values are reported for the periods 0 to 60 min and 60 to 255 min, respectively. Student’s paired t test was used to test for differences in baseline, peak, time to peak, AUC and mean values and ad libitum food intake in men.

[3] = healthy men n = 20, iv LEAP2 ~25 pmol/kg/min, liquid mixed meal at 65 min

CC[C@H](C)[C@@H]1NC(=O)[C@@H]2CSSC[C@@H](C(=O)N[C@@H](CO)C(=O)N[C@@H](CC(C)C)C(=O)N[C@@H](CO)C(=O)N[C@H](C(=O)N[C@@H](C)C(=O)N[C@@H](CCC(N)=O)C(=O)N[C@@H](CCC(=O)O)C(=O)O)C(C)C)NC(=O)[C@H](CCCNC(=N)N)NC(=O)[C@H](CCCNC(=N)N)NC(=O)[C@H](CCCCN)NC(=O)[C@H](CCCNC(=N)N)NC(=O)[C@H](CSSC[C@H](NC(=O)[C@H](CO)NC(=O)[C@H](C)NC(=O)CNC(=O)[C@@H](NC(=O)[C@@H]3CCCN3C(=O)[C@H](CCCNC(=N)N)NC(=O)[C@H](CC(C)C)NC(=O)[C@H](CO)NC(=O)[C@@H](NC(=O)CNC(=O)[C@H](CCCNC(=N)N)NC(=O)[C@H](Cc3c[nH]c4ccccc34)NC(=O)[C@H](Cc3ccccc3)NC(=O)[C@@H]3CCCN3C(=O)[C@@H](NC(=O)[C@@H](N)CCSC)[C@@H](C)O)C(C)C)[C@@H](C)CC)C(=O)N[C@@H](CCCNC(=N)N)C(=O)N[C@@H](CC(=O)O)C(=O)N[C@@H](CC(=O)O)C(=O)N[C@@H](CO)C(=O)N[C@@H](CCC(=O)O)C(=O)N2)NC(=O)[C@H](CC(C)C)NC(=O)[C@H](CCCNC(=N)N)NC(=O)[C@H]([C@@H](C)O)NC1=O [LEAP2, liver-expressed antimicrobial peptide 2] (H-MTPFWRGVSLRPIGASCRDDSECITRLCRKRRCSLSVAQE-OH; disulfide 17-28, 23-33 (inferred); N-terminus and C-terminus assumed)
mean difference in ad libitum food intake per kg body weight (placebo vs LEAP2) (healthy men [1]; 95% CI, p = 0.0029): 5.4 kJ/kg | mean difference in total ad libitum food intake (placebo vs LEAP2) (healthy men [1]; 95% CI, p = 0.0041): 432 kJ | mean difference in duration of the ad libitum meal (placebo vs LEAP2) (healthy men [1]; 95% CI, p = 0.0303): 1.5 min | reduction in energy intake during ad libitum meal compared with placebo (healthy men [1]; pasta Bolognese served 260 min after start of infusion): ~12% | Growth hormone Baseline (healthy men [2]; healthy men n = 20, LEAP2 day, before infusion): 0.594 ± 0.300 ng/mL | Growth hormone AUC (healthy men [2]; healthy men n = 20, iv LEAP2 ~25 pmol/kg/min, 0 to 255 min): 33.8 ± 11.8 ng·min/mL | Growth hormone AUC0–60 min (healthy men [2]; healthy men n = 20, iv LEAP2 ~25 pmol/kg/min, fasting period): 20.2 ± 9.76 ng·min/mL | Growth hormone Nadir (healthy men [2]; [3]): 0.042 ± 0.004 ng/mL | Growth hormone Time to nadir (healthy men [2]; [3]): 116 ± 17.2 min | Growth hormone AUC60–255 min (healthy men [2]; healthy men n = 20, iv LEAP2 ~25 pmol/kg/min, postprandial period): 13.6 ± 2.32 ng·min/mL | Growth hormone Postprandial baseline (healthy men [2]; healthy men n = 20, iv LEAP2 ~25 pmol/kg/min, time = 60 min): 0.121 ± 0.048 ng/mL
